A melting point compilation (Tetko et al.; mined from patent text by program, amines drawn as free bases though some values may be those of a salt)

`Cc1nnc(O[Si](C)(C)C)nc1O[Si](C)(C)C` gave a melting point of 43 °C.
Compound `CCCCCC(=O)N(Cc1ccccc1)c1nc(C)ns1` has a melting point of 72 °C.
Work on `CN(C)CCCNC(=O)c1ccc(-c2cnc3c(c2)N(C(=O)c2ccccc2)CCN3)cc1` yielded a melting point of 94 °C.
For `COC(=O)Cc1ccccc1N(Cc1ccc(Cl)cc1)S(C)(=O)=O`, the melting point was 73 to 75 °C.
With `Cc1ncc(CS)c(COC(=O)c2ccccc2)c1OC(=O)c1ccccc1` the melting point was 185 to 189 °C.
`c1ccc(C[C@@H]2CN(C3=Nc4ccccc4Sc4ccccc43)CCN2)cc1` showed a melting point of 56 to 69 °C.
With `CC(O)(c1ccccc1)c1cc(C2CCCCC2)ccc1O` (centres undefined) the melting point was 119 °C.
`CC(C)O[Si](C)(C)C[C@](O)(c1ccc(F)cc1F)[C@@H](C)n1ncn(-c2ccc(OCC(F)(F)C(F)F)cc2)c1=O` gave a melting point of 125 to 126 °C.
`Cc1c(NC(=O)CC(C)(C)C)cc2c(c1C)OC(C)(C)C2O` (centres undefined) showed a melting point of 184 to 185 °C.
`CC(=O)CN(C(=O)c1ccco1)c1c(C)cccc1C` showed a melting point of 90 to 91 °C.
Work on `O=Cc1cn(-c2c(Cl)cc(C(F)(F)F)cc2Cl)c2ccccc12` yielded a melting point of 167 to 169 °C.
With `CS(=O)c1ccc(C2=NN(S(=O)(=O)c3ccc(I)cc3)CCC2)cc1` (centres undefined) the melting point was 191 to 193 °C.
Compound `O=C(NCCc1ccccc1)c1ccccc1-c1ccccc1CNS(=O)(=O)c1cccc(F)c1` has a melting point of 153 °C.
`Cc1cnc2n1N=C(c1ccc(F)cc1)c1cc3c(cc1C2)OCO3` showed a melting point of 190 °C.
Compound `COc1ccc2[nH]cc(CCC(=O)O)c2c1` has a melting point of 80 °C.
In the case of `O=C(CBr)c1ccc(Cl)c(Cl)c1Cl`, the melting point is reported as 44 to 46 °C.
For `CCOC(=O)c1cn(C2COC2)c2c(F)c(F)c(F)c(F)c2c1=O`, the melting point was 110 to 113 °C.
`Cc1c(NC(=O)CC(C)(C)C)c(C)c2c(c1-c1cccnc1)OCC2c1ccc(C(C)C)cc1` (centres undefined) gave a melting point of 142 to 144 °C.
For `COC(=O)CCNc1ccc(CNC(=O)C2Cc3ccccc3N2S(=O)(=O)c2ccc(-c3cccc(C(F)(F)F)c3)cc2)cc1` (centres undefined), the melting point was 61 °C.
For `CCOC(=O)c1cc2c3ccccc3n(CCCc3ccccc3)c2cn1`, the melting point was 140 to 142 °C.
With `CCc1c(OC)cc(C2CN(C)CCC2=O)cc1OC` (centres undefined) the melting point was 84 to 85 °C.
`CCc1cccc2c(C(=O)OC)cnnc12` gave a melting point of 59 to 60 °C.
`Cc1c(C=CCCCCCCCCCC(=O)O)cccc1C(=O)c1ccc(Cl)cc1` showed a melting point of 49 °C.
For `CC(C)(C)c1cc(NC(=O)c2cccn2-c2ccc(N)cc2)cc(C(C)(C)C)c1O`, the melting point was 218 to 219 °C.
For `O=C(O)C(CC(=O)N1CCOCC1)Oc1ccccc1` (centres undefined), the melting point was 150 to 151 °C.
Work on `CN(C)C1(c2ccccc2)CCC(CCCNC(=O)NCCc2c[nH]c3ccccc23)CC1` (centres undefined) yielded a melting point of 57 °C.
For `Ic1ccc(CCN2CCOCC2)cc1`, the melting point was 64 to 67 °C.
For `CCCN1c2ccccc2N(C)C(=O)c2cccnc21`, the melting point was 96 to 98 °C.
In the case of `N#Cc1ccc(-c2nc(C(=O)Nc3nccs3)c(-c3ccc(F)cc3)[nH]2)cc1`, the melting point is reported as over 250 °C.
For `CC(C)C1=C(C#N)C(c2ccccc2Cl)c2c[nH]nc2N1` (centres undefined), the melting point was over 250 °C.
In the case of `CC(=O)N1CCc2c(N)cccc2C1`, the melting point is reported as 107 to 108 °C.
`Oc1cc2cc(-c3ccccc3Cl)sc2c(Cl)c1Cl` gave a melting point of 174 to 175 °C.
Work on `COc1ccc(OCC2(Cc3c(C)nc(OC)c(C(C)C)c3C(=O)c3cc(C)cc(C#N)c3)CC2)cc1` yielded a melting point of 179 to 180 °C.
`CCOC(=O)[C@@H](O)[C@@H]1OC(=O)c2cc(OC)c(OS(=O)(=O)c3ccc(C)cc3)cc21` gave a melting point of 107 to 108 °C.
`COC(=O)C(=C(C)C)N1CC(NC(=O)OCc2ccccc2)C1=O` (centres undefined) showed a melting point of 135 to 137 °C.
`CC(=O)Oc1ccccc1C(=O)Oc1nc[nH]c1C(N)=O` gave a melting point of 143 to 145 °C.
In the case of `CCCn1c(=O)[nH]c2ccc(C(=O)c3ncc4ccccn34)cc2c1=O`, the melting point is reported as 304 °C.
For `COc1cccc(C(CN2CCN(c3cccc(C(F)(F)F)c3)CC2)C2(O)CCCC2)c1` (centres undefined), the melting point was 158 to 160 °C.
With `NC(=S)NCc1cn(-c2ccc(N3CCOCC3)c(F)c2)nn1` the melting point was 192 °C.
`O=c1ccc(S(=O)(=O)c2cc3ccc(F)cc3[nH]2)n[nH]1` gave a melting point of over 250 °C.
`COc1c(Cl)nc(-c2ccccc2)nc1Cl` gave a melting point of 78 to 80 °C.
`CSC(=O)C(=O)c1cccc(NC=O)n1` showed a melting point of 163 to 165 °C.
For `O=S(=O)(CCCl)c1ccc(O)cc1`, the melting point was 72.5 to 73.5 °C.
For `Cc1cccc(-c2[nH]c(C(C)C)nc2-c2cccc(-c3ccc4c(c3)CCS4(=O)=O)c2)n1`, the melting point was 128 to 131 °C.
In the case of `N#Cc1c(C(N)=O)c2n(c1C1CC1)CCN(S(=O)(=O)c1ccc(C(F)(F)F)cc1)C2`, the melting point is reported as 253 to 256 °C.
Work on `ClCc1ccc(-c2nsc3ccccc23)cc1` yielded a melting point of 86 to 89 °C.
Work on `CCOC(=O)c1cccc(NC(=O)N2CCn3c(c(C(N)=O)c(Cl)c3-c3ccccc3)C2)c1` yielded a melting point of 126 to 128 °C.
With `COc1cc(C(C)=O)ccc1OCCC(C)N1CCN(c2nn(C(=O)c3ccccc3)c3cc(F)ccc23)CC1` (centres undefined) the melting point was 138 to 140 °C.
Work on `CON=Cc1[nH]ccc1S(=O)(=O)NC(C)(C)C` yielded a melting point of 99 to 101 °C.
For `CCc1cc2c(ccc(=O)n2Cc2ccc([N+](=O)[O-])cc2)c(CC)n1`, the melting point was 153 to 156 °C.
With `C=CC[C@H]1C[C@@](OS(C)(=O)=O)(C(=O)OC)C[C@@H](OC(=O)c2ccccc2)[C@@H]1O` the melting point was 46 to 47 °C.
For `Cc1ccc([N+](=O)[O-])c2c1CCCC2=O`, the melting point was 104 to 107 °C.
Compound `Fc1ccc(-c2nc(-c3ccccn3)cs2)cc1` has a melting point of 140 to 144 °C.
In the case of `Cc1cc(OC(=O)c2ccc(Cl)cc2)n(C)n1`, the melting point is reported as 100 to 101 °C.
Work on `Cc1c(C)c2c(c(C)c1O)CC[C@@](C)(CCO)O2` yielded a melting point of 155 °C.
In the case of `O=S(CCN1C=CC=CC=C1)c1ccccc1` (centres undefined), the melting point is reported as 195 °C.
Compound `Nc1nc(-c2cc(Cl)ccc2Cl)nc(N2CCC(Cc3ccccc3)CC2)n1` has a melting point of 159 to 161 °C.
`CCN(CC)c1cc2c(cc1C)Nc1c(cc(NC(=O)c3ccc(OC)cc3)c3ncn(-c4ccc(OC)cc4)c13)O2` showed a melting point of 189 to 192 °C.
`C#CCCCC1(S(=O)(=O)c2ccc(C)cc2)SC(=O)NC1=O` (centres undefined) showed a melting point of 226 °C.
Compound `COc1ccc(N2C(=O)N(c3cccc(C(N)=O)c3)c3nc(Nc4cccc(CCN(C)C)c4)ncc3C2C)cc1` (centres undefined) has a melting point of 215 to 230 °C.
`CC(C)Sc1ccc(O)cc1O` showed a melting point of 67 °C.
`O=C(N(CCN(C(=O)C(F)(F)F)c1cccc2[nH]ccc12)Cc1ccccc1)C(F)(F)F` showed a melting point of 174 to 177 °C.
`CC(C)(C)c1nc(O)cc(OC(F)F)n1` gave a melting point of 156 °C.
With `O=c1c2cc(F)ccc2nc(NCc2ccccn2)n1-c1ccccc1Cl` the melting point was 156 to 158 °C.
For `O=C(O)C(Cc1cccc(F)c1)c1ccc(F)cc1` (centres undefined), the melting point was 92 to 94 °C.
In the case of `Cc1ccc(S(=O)(=O)NC(=O)C2C(=O)CC(C)CC2=O)cc1` (centres undefined), the melting point is reported as 122 °C.
For `Nc1ccc(Cl)nc1Nc1ccc2c(c1)OCO2`, the melting point was 162 to 163 °C.
`COc1ncc(CC2SC(N3CCOCC3)=NC2=O)cc1-c1ccc(O)c(C23CC4CC(CC(C4)C2)C3)c1` (centres undefined) showed a melting point of 175 to 177 °C.
`O=C(CCc1ccccc1)N[C@H](Cc1cccc(Oc2ccccc2)c1)[C@@H](O)c1ccc(F)cc1` (racemic) showed a melting point of 91 to 93 °C.
Work on `COc1ccc2cc(CN(C)C(=O)c3oc4ccccc4c3C)ccc2c1Br` yielded a melting point of 138 to 140 °C.
Work on `CC(=O)N1CCN(c2cccc(-n3cnc4cc(C(C)O)ccc43)c2)CC1` (centres undefined) yielded a melting point of 126 °C.
`COc1cc(OCc2ccccn2)ccc1/C=C/C(=O)CC(=O)/C=C/c1cc2ccccc2o1` gave a melting point of 126 to 128 °C.
`CNc1nc(Cl)c(OC(F)F)c(OC)n1` showed a melting point of 49 to 53 °C.
`CCOC(=O)C1=C(C)N=C(N)C(CC)(C(=O)OCC)C1c1cccc([N+](=O)[O-])c1` (centres undefined) gave a melting point of 122 to 123 °C.
`COc1ccc(C(=NO)c2ccc(Cl)cc2)c(O)c1` showed a melting point of 159 °C.
With `CCN(CC)C(=O)c1cccc(I)c1C(=O)O` the melting point was 120 to 122 °C.
`CN(C)c1ccccc1CSc1nc2ccccc2[nH]1` showed a melting point of 167 to 170 °C.
With `CC1(C)CC(OC(=O)c2ccccc2)CC(C)(C)N1OP(=O)(c1ccccc1)c1ccccc1` the melting point was 169 to 173 °C.
Compound `CP(=O)(O)CC(=O)CN` has a melting point of 148 to 149 °C.
`COC(=O)[C@@H]1O[C@H](c2ccc(OC)cc2)N(C(=O)OC(C)(C)C)[C@H]1c1ccccc1` showed a melting point of 104 to 105 °C.
`CC(C)(C)OC(=O)N1CCC(n2cc(-c3ccc(Oc4ccccc4)cc3)c3c(N)ncnc32)CC1` showed a melting point of 168 to 170 °C.
For `CN1C(=O)C2C3C=CC(C3)C2(c2ccc3c(c2)OCO3)C1=O` (centres undefined), the melting point was 116 to 118 °C.
Compound `COc1cccc2c3c([nH]c12)C(=O)N=NC3=O` has a melting point of over 260 °C.
With `COc1ccc(Cn2cnc3c(-c4ccco4)nc(-c4ccccc4)nc32)cc1` the melting point was 140 to 142 °C.
For `O=C(C1CC1)N1CCC2C1CCCC2(O)c1ccc(Cl)cc1` (centres undefined), the melting point was 167 to 169 °C.
With `COc1ccc(-c2nc(S(C)(=O)=O)ncc2C(=O)N2CCOCC2)cc1OC` the melting point was 77 °C.
Work on `CC(C)C[C@@H](O)CC(=O)O` yielded a melting point of 86 °C.
With `COc1cc(CN2C(=O)c3ccsc3CC2C(=O)O)cc(OC)c1OC` (centres undefined) the melting point was 208 °C.
Compound `CCCN(CCC)C(=O)c1cc2ccccc2c(-c2ccccc2Cl)n1` has a melting point of 101 °C.
`CC(C)[C@H]1COC(=O)N1C(=O)[C@@H](CC(=O)OCc1ccccc1)Cc1ccccc1` gave a melting point of 118 to 120 °C.
`CC(C)(C)OC(=O)N[C@@H](Cc1ccc(OS(=O)(=O)C(F)(F)F)cc1)C(=O)OC(c1ccccc1)c1ccccc1` gave a melting point of 110 to 112 °C.
`COc1ccc(-n2c(=O)n(O)c(=O)c3cc(F)c(N4CCN(C)CC4)cc32)cc1` showed a melting point of 195 to 196 °C.
For `CCOC(=O)C1=C(C)N(C(C)=O)C(c2csc(C)n2)=NC1c1cccc(OC)c1` (centres undefined), the melting point was 114 to 116 °C.
Compound `N#CC(C(=O)NC1CCCCC1)=C1Nc2ccccc2O1` has a melting point of 185 to 187 °C.
Work on `Oc1cnc(N2CCN(CCCCn3cc(Cl)cn3)CC2)nc1` yielded a melting point of 131 to 132 °C.
In the case of `CC(C)c1ccccc1Nc1nc(N)nc2c1-c1ccccc1C2`, the melting point is reported as 193 to 195 °C.
`Cc1cc(OCc2sc(-c3ccc(C(F)(F)F)cc3)nc2C)ccc1OC(C)(C)C(=O)O` gave a melting point of 154 °C.
With `N#CC[C@@H](O)CC(=O)NN` the melting point was 134 to 136 °C.
`COc1ccc(C2=NN(c3cnc4ccccc4n3)C(=O)[C@H]3CC=CC[C@@H]23)cc1Cl` (relative stereo) showed a melting point of 172 to 174 °C.
